{
  "source": "patent US4746668A",
  "about": "“Method for treating retinopathy” (Daiichi Seiyaku Co., Ltd., priority 1986, dated 1988)",
  "key": {"blood glucose level": {"tested_on": "blood glucose level", "settings": "as disclosed in U.S. Pat. No. 4,138,491; cited from earlier work"}, "[1]": {"assay": "Acute toxicity (LD50) in rats, oral", "settings": "rat, in vivo, administered orally"}, "[2]": {"tested_on": "human neutrophil aggregation", "assay": "Inhibition by Compound A of PAF-induced human neutrophil aggregation (Optical method)", "type": "cell-based", "procedure": "(§1) Blood was taken from median cubital vein or cephalic vein of normal men aged of 29 to 40, who had taken no anti-inflammatory drug at least for the last 10 days before testing, into a syringe containing 0.1 volume of 40 U/ml heparin aqueous solution (a product of Green Cross Corp., Japan).\n10 ml of the blood obtained above was mixed with 3 ml of a 4.5% dextran aqueous solution, and the mixture was allowed to stand for 1 hour at room temperature. The supernatant was taken and centrifuged at 250 X g for 7 minutes. The precipitate was taken, and 3 ml of 0.2% sodium chloride aqueous solution was added thereto to lyse the red blood cells. The mixture was allowed to stand for 75 seconds and 7 ml of a 1.2% sodium chloride aqueous solution was added thereto. The mixture was centrifuged at 250 X g for 7 minutes to obtain the precipitate which contained mainly neutrophils. When the red blood cell was not sufficiently removed, the above procedure for lysis of red blood cell was repeated. The precipitate was washed with 10 ml of a phosphate buffer solution containing 0.5% glucose (hereinafter, PBSG), and the mixture was centrifuged at 250 X g for 7 minutes to take the precipitate. The above washing procedure was repeated twice, and the precipitate obtained was added to PBSG or PBSG containing 0.5% human serum albumin to obtain the neutrophil suspension. It was confirmed that the surviving ratio of nuetrophil in the resulting suspension was over 95% as determined by the trypan blue staining method. A blood cell counter (a product of Nihon Koden Co., Ltd) was used to count the number of neutrophils. The mixture was preserved at 4° C. before use. […]\n5 μl of saline solution of Compound A prepared in 1-4) was added to 1 ml of neutrophil suspension and the mixture was incubated for 2 minutes under the conditions that the temperature in cell was 37° C. and the stirring rate was 1,000 r.p.m. […] The aggregation was determined optically using the Chrono-log aggregometer. As a control, saline was used instead of saline solution of Compound A and the aggregation was determined as described above."}, "platelet aggregation": {"tested_on": "platelet aggregation", "settings": "as disclosed in U.S. Pat. No. 4,138,491; cited from earlier work"}, "[3]": {"tested_on": "human platelet aggregation", "assay": "Inhibition by Compound A of PAF-induced human platelet aggregation", "type": "cell-based", "procedure": "as §1\nThe blood obtained in (1) was centrifuged at 190 X g for 7 minutes. The supernatant was taken to obtain the platelets rich plasma (hereinafter, PRP). Platelet counter (a product of Toa Co., Ltd) was used to count the number of platelets.\n(§2) Compound A was dissolved in a saline, and the solution obtained was used in the experiment.\n(§3) As an aggregation inducing agent, an aqueous solution prepared by dissolving epinephrine or a platelet activating factor (hereinafter, PAF) in 25 mM Tris HCl-130 mM NaCl aqueous solution (pH 7.4) was used in the experiment.\n(§4) 5 μl of saline solution of Compound A prepared in 1-4 was added to 1 ml of the whole blood, neutrophil suspension or PRP and an electrode was dipped thereinto. The mixture obtained was incubated for 2 minutes under the conditions that the temperature in cell was 37° C. and the stirring rate was 1000 r.p.m., and then 20 μl of aggregation inducing agent was added to the mixture. 4 minutes later, the variation in impedance (Δ.OMEGA.) was determined using Chrono-log aggregometer (540 type, a product of Chrono-log Co., Ltd). The intensity of the variation gave the aggregation activity. In determining the aggregation of neutrophils, 5 μg/ml of cytochalasin B was added to the incubated mixture, one minute prior to the addition of PAF solution. As a control, saline was used instead of saline solution of Compound A and the aggregation was determined as described above."}, "diabetic retinopathy": {"tested_on": "diabetic retinopathy", "assay": "Clinical trial in patients having diabetic retinopathy, funduscopic observation", "type": "in vivo, human", "design": "key to Funduscopic observation: microaneurysms / Funduscopic observation: dot hemorrhage: +: observed; ±: slightly observed; -: not observed", "settings": "300 to 900 mg daily orally; for Funduscopic observation: microaneurysms / Funduscopic observation: dot hemorrhage: + + at start", "procedure": "Compound A was administered orally at dose of 300 to 900 mg daily to patients having diabetic retinopathy for a period of a month to about 2 years. Microaneurysms, dot hemorrhage, retina edema, hard exudate, arterialization and maculopathy in Fundus oculi, which were indications for retinopathy, were investigated using a funduscope."}, "human neutrophils": {"tested_on": "human neutrophils", "assay": "Inhibition by Compound A of PAF-induced adhesion-aggregation of human neutrophils (Impedance method)", "type": "cell-based", "settings": "Neutrophil, 10 μM Compound A, 0.02 μM, read-out: Inhibition ratio", "procedure": "as §1\n10 ml of the blood obtained above was mixed with 3 ml of a 4.5% dextran aqueous solution, and the mixture was allowed to stand for 1 hour at room temperature. The supernatant was taken and centrifuged at 250 X g for 7 minutes. The precipitate was taken, and 3 ml of 0.2% sodium chloride aqueous solution was added thereto to lyse the red blood cells. The mixture was allowed to stand for 75 seconds and 7 ml of a 1.2% sodium chloride aqueous solution was added thereto. […] It was confirmed that the surviving ratio of nuetrophil in the resulting suspension was over 95% as determined by the trypan blue staining method. […]\n5 μl of saline solution of Compound A prepared in 1-4 was added to 1 ml of the whole blood, neutrophil suspension or PRP and an electrode was dipped thereinto. […] 4 minutes later, the variation in impedance (Δ.OMEGA.) was determined using Chrono-log aggregometer (540 type, a product of Chrono-log Co., Ltd). […] As a control, saline was used instead of saline solution of Compound A and the aggregation was determined as described above."}, "[4]": {"tested_on": "human whole blood aggregation", "assay": "Inhibition by Compound A of human whole blood aggregation (Impedance method)", "type": "cell-based", "procedure": "as §1, §2, §3, §4"}, "retinal vesseles": {"tested_on": "retinal vesseles", "settings": "injected into retinal artery of rabbit; cited from earlier work"}, "[5]": {"settings": "patient B, left eye, 116 weeks after administration"}, "[6]": {"settings": "patient B, right eye, 116 weeks after administration"}},
  "note": "Values joined by “and” are separate entries in the source; they are usually repeats but may differ in a detail not shown here. Equal entries are not always repeated. Where two headings read alike, the source gives them in different places.",
  "data": [
    {"smiles": "c1ccc(C(CC2=NCCN2)c2ccccn2)cc1", "note": "(stereo not drawn) [Compound A, 2-(2-phenyl-2-(2-pyridyl))ethyl-2-imidazoline]", "values": [
      {"measurement": "blood glucose level", "setting": "blood glucose level", "value": "reduces the blood glucose level"},
      {"measurement": "LD50", "setting": "[1]", "value": 867, "unit": "mg/kg"},
      {"measurement": "inhibition at 5 µM", "setting": "[2]; Homo sapiens, Neutrophil, 5 μM Compound A, PAF, 2 μM, optical method, read-out: inhibition ratio", "value": 68, "unit": "%"},
      {"measurement": "inhibition at 10 µM", "setting": "[2]; Homo sapiens, Neutrophil, 10 μM Compound A, PAF, 2 μM, optical method, read-out: inhibition ratio", "value": 83, "unit": "%"},
      {"measurement": "PAF-induced human neutrophil aggregation", "setting": "[2]; at low concentration", "value": "inhibited the PAF-induced human neutrophil aggregation at low concentration"},
      {"measurement": "platelet aggregation", "setting": "platelet aggregation", "value": "inhibits platelet aggregation"},
      {"measurement": "inhibition at 10 µM", "setting": "[3]; Homo sapiens, Platelet, 10 μM Compound A, PAF, 2 μM, read-out: Inhibition ratio", "value": 0, "unit": "%"},
      {"measurement": "inhibition at 50 µM", "setting": "[3]; Homo sapiens, Platelet, 50 μM Compound A, PAF, 2 μM, read-out: Inhibition ratio", "value": 45, "unit": "%"},
      {"measurement": "inhibition at 100 µM", "setting": "[3]; Homo sapiens, Platelet, 100 μM Compound A, PAF, 2 μM, read-out: Inhibition ratio", "value": 82, "unit": "%"},
      {"measurement": "PAF-induced human platelet aggregation", "setting": "[3]; low versus high concentration", "value": "did not inhibit PAF-induced human platelet aggregation at a low concentration but did at a high concentration"},
      {"measurement": "microaneurysms and dot hemorrhage", "setting": "diabetic retinopathy; 3 patients", "value": "disappearance or reduction of microaneurysms and dot hemorrhage were observed"},
      {"measurement": "Funduscopic observation: microaneurysms", "setting": "diabetic retinopathy; patient A, left eye, 58 weeks after administration", "value": "-"},
      {"measurement": "Funduscopic observation: microaneurysms", "setting": "diabetic retinopathy; patient A, right eye, 58 weeks after administration", "value": "-"},
      {"measurement": "Funduscopic observation: dot hemorrhage", "setting": "diabetic retinopathy; [5]", "value": "-"},
      {"measurement": "Funduscopic observation: microaneurysms", "setting": "diabetic retinopathy; [5]", "value": "-"},
      {"measurement": "Funduscopic observation: dot hemorrhage", "setting": "diabetic retinopathy; [6]", "value": "-"},
      {"measurement": "Funduscopic observation: microaneurysms", "setting": "diabetic retinopathy; [6]", "value": "-"},
      {"measurement": "Funduscopic observation: dot hemorrhage", "setting": "diabetic retinopathy; patient C, left eye, 109 weeks after administration", "value": "±"},
      {"measurement": "Funduscopic observation: dot hemorrhage", "setting": "diabetic retinopathy; patient C, right eye, 109 weeks after administration", "value": "±"},
      {"measurement": "inhibition at 10 µM", "setting": "human neutrophils", "value": 59, "unit": "%"},
      {"measurement": "IC50", "setting": "[4]; Homo sapiens, in vitro, Epinephrine (2 μM), individual values of n = 3, read-out: IC50", "value": 5.6, "unit": "µM"},
      {"measurement": "IC50", "setting": "[4]; Homo sapiens, in vitro, Epinephrine (2 μM), n = 3, read-out: IC50, average ± s.d.", "value": "5.2 ± 0.7", "unit": "µM"},
      {"measurement": "IC50", "setting": "[4]; Homo sapiens, induced by PAF (0.02 μM), n=3, read-out: IC50, average", "value": 2.8, "unit": "µM"},
      {"measurement": "IC50", "setting": "[4]; Homo sapiens, induced by epinephrine (2 μM), n=3, read-out: IC50", "value": "~5", "unit": "µM"},
      {"measurement": "IC50", "setting": "[4]; in vitro, Epinephrine (2 μM), individual values of n = 3, read-out: IC50", "value": "4.2 µM and 5.8 µM"},
      {"measurement": "IC50", "setting": "[4]; in vitro, PAF (0.02 μM), individual values of n = 3, read-out: IC50", "value": "1.8 µM and 4.6 µM"}
    ]},
    {"smiles": "CCCCCCCCCCCCCCCCOCC(COP(=O)([O-])OCC[N+](C)(C)C)OC(C)=O", "note": "(stereo not drawn) [PAF]", "values": [
      {"measurement": "state of retinal vessels", "setting": "retinal vesseles", "value": "a sludge-like state is observed in retinal vesseles"}
    ]}
  ]
}
